# Tested on: M. tuberculosis H37Ra
# Assay: MIC against M. tuberculosis H37Ra, micro broth dilution in microtiter plates
# Settings: M. tuberculosis H37Ra
row,Structure (SMILES),anti-tuberculosis MIC activity
1,"O=C(NCc1cccc(N2CCC(Cc3ccccc3)CC2)c1)c1ccc([N+](=O)[O-])o1 [Compound 70, 5-Nitro-furan-2-carboxylic acid 3-(4-benzyl-piperidin-1-yl)-benzylamide]",extremely potent
2,O=C(c1ccc([N+](=O)[O-])o1)N1CCC(Cc2ccccc2)CC1 [Compound 72],good activity
3,O=C(c1ccc([N+](=O)[O-])o1)N1CCN(Cc2ccccc2)CC1 [Compound 73],good activity
4,COc1cc2c(cc1OC)CN(C(=O)c1ccc([N+](=O)[O-])o1)CC2 [Compound 75],very potent

# Same assay, conditions: Mycobacterium tuberculosis, H37RA, 168 h, read-out: TB MIC, Table 1; M. tuberculosis H37Ra, 7 days at 37° C., MIC90
row,Structure (SMILES),MIC [µg/mL]
1,"COc1ccc(CCNC(=O)c2ccc([N+](=O)[O-])o2)cc1 [Compound 28, 5-Nitro-furan-2-carboxylic acid [2-(4-methoxy-phenyl)-ethyl]-amide]",0.8
2,"O=C(Nc1cccc(OCc2ccccc2)c1)c1ccc([N+](=O)[O-])o1 [Compound 37, 5-Nitro-furan-2-carboxylic acid(3-benzyloxy-phenyl)-amide]",12.5

# Same assay, conditions: Mycobacterium tuberculosis, H37RA, Table 6; M. tuberculosis H37Ra, MIC90
row,Structure (SMILES),MIC [µg/mL]
1,"O=C(c1ccc([N+](=O)[O-])o1)N1CCN(c2ncccn2)CC1 [Compound 81, (5-Nitro-furan-2-yl)-(4-pyrimidin-2-yl-piperazin-1-yl)-methanone]",0.1
2,"COc1ccc(CN2CCN(C(=O)c3ccc([N+](=O)[O-])o3)CC2)cc1 [Compound 85, [4-(4-Methoxy-benzyl)-piperazin-1-yl]-(5-nitro-furan-2-yl)-methanone]",0.1
3,"COc1cccc(CN2CCN(C(=O)c3ccc([N+](=O)[O-])o3)CC2)c1 [Compound 86, [4-(3-Methoxy-benzyl)-piperazin-1-yl]-(5-nitro-furan-2-yl)-methanone]",0.4
4,"O=C(c1ccc([N+](=O)[O-])o1)N1CCN(Cc2cccc(OCc3ccccc3)c2)CC1 [Compound 87, [4-(3-Benzyloxy-benzyl)-piperazin-1-yl]-(5-nitro-furan-2-yl)-methanone]",0.4
5,"CCN(CC)c1ccc(CN2CCN(C(=O)c3ccc([N+](=O)[O-])o3)CC2)cc1 [Compound 88, [4-(4-Diethylamino-benzyl)-piperazin-1-yl]-(5-nitro-furan-2-yl)-methanone]",0.4
6,"COc1ccc(CN2CCN(C(=O)c3ccc([N+](=O)[O-])o3)CC2)c(OC)c1 [Compound 89, [4-(2,4-Dimethoxy-benzyl)-piperazin-1-yl]-(5-nitro-furan-2-yl)-methanone]",0.2
7,"O=C(c1ccc([N+](=O)[O-])o1)N1CCN(Cc2ccc(F)cc2)CC1 [Compound 90, [4-(4-Fluoro-benzyl)-piperazin-1-yl]-(5-nitro-furan-2-yl)-methanone]",0.4
8,"CC(=O)c1ccc(N2CCN(C(=O)c3ccc([N+](=O)[O-])o3)CC2)cc1 [Compound 91, 1-{4-[4-(5-Nitro-furan-2-carbonyl)-piperazin-1-yl]-phenyl}-ethanone]",0.0031
9,"COc1ccc(N2CCN(C(=O)c3ccc([N+](=O)[O-])o3)CC2)cc1 [Compound 107, [4-(4-Methoxy-phenyl)-piperazin-1-yl]-(5-nitro-furan-2-yl)-methanone]",0.05
10,"O=C(c1ccc(F)cc1)N1CCN(C(=O)c2ccc([N+](=O)[O-])o2)CC1 [Compound 109, [4-(4-Fluoro-benzoyl)-piperazin-1-yl]-(5-nitro-furan-2-yl)-methanone]",0.05
11,"COc1ccc(C(=O)N2CCN(C(=O)c3ccc([N+](=O)[O-])o3)CC2)cc1 [Compound 110, [4-(4-Methoxy-benzoyl)-piperazin-1-yl]-(5-nitro-furan-2-yl)-methanone]",0.05
12,"CN1CCN(/N=C/c2ccc(CNC(=O)c3ccc([N+](=O)[O-])o3)cc2)CC1 [Compound 111, 5-Nitro-furan-2-carboxylic acid 4-[(4-methyl-piperazin-1-ylimino)-methyl]-benzylamide]",0.1

# Same assay, conditions: Table 1; M. tuberculosis H37Ra, 7 days at 37° C., MIC90
row,Structure (SMILES),TB MIC [µg/mL]
1,COc1ccc(NC(=O)c2ccc([N+](=O)[O-])o2)cc1Cl [Compound 1],1.6
2,"O=C(Nc1cccc(Br)c1)c1ccc([N+](=O)[O-])o1 [Compound 11, 5-Nitro-furan-2-carboxylic acid(3-bromo-phenyl)-amide]",1.6
3,"COc1ccc(NC(=O)c2ccc([N+](=O)[O-])o2)cc1 [Compound 14, 5-Nitro-furan-2-carboxylic acid(4-methoxy-phenyl)-amide]",0.4
4,"O=C(NCc1ccco1)c1ccc([N+](=O)[O-])o1 [Compound 18, 5-Nitro-furan-2-carboxylic acid(furan-2-ylmethyl)-amide]",6.25
5,"N#Cc1ccc(NC(=O)c2ccc([N+](=O)[O-])o2)cc1 [Compound 19, 5-Nitro-furan-2-carboxylic acid(4-cyano-phenyl)-amide]",0.8
6,"COc1ccc(CNC(=O)c2ccc([N+](=O)[O-])o2)c(OC)c1 [Compound 22, 5-Nitro-furan-2-carboxylic acid 2,4-dimetboxy-benzylamide]",0.4
7,"CC(NC(=O)c1ccc([N+](=O)[O-])o1)c1ccccc1 (stereo not drawn) [Compound 29, 5-Nitro-furan-2-carboxylic acid(1-phenyl-ethyl)-amide]",1.6
8,CN(C(=O)c1ccc([N+](=O)[O-])o1)c1ccccc1 [Compound 41],3.12
9,COc1ccc(N(C)C(=O)c2ccc([N+](=O)[O-])o2)cc1 [Compound 42],6.25
10,O=C(c1ccc([N+](=O)[O-])o1)N1CCc2ccccc21 [Compound 43],0.8
11,O=C(Nc1cccnc1)c1ccc([N+](=O)[O-])o1 [Compound 45],6.25
12,O=C(Nc1ccncc1)c1ccc([N+](=O)[O-])o1 [Compound 46],3.12
13,"O=C(NCc1ccccn1)c1ccc([N+](=O)[O-])o1 [Compound 49, 5-nitro-furan-2-carboxylic acid(pyridin-2-ylmethyl)-amide]",0.8
14,"COc1cccc2sc(NC(=O)c3ccc([N+](=O)[O-])o3)nc12 [Compound 50, 5-nitro-furan-2-carboxylic acid(4-methoxy-benzothiazol-2-yl)-amide]",1.6
15,"COc1cc(NC(=O)c2ccc([N+](=O)[O-])o2)ncn1 [Compound 51, 5-nitro-furan-2-carboxylic acid(6-methoxy-pyrimin-4-yl)-amide]",1.6

# Same assay, conditions: Table 5; M. tuberculosis H37Ra, MIC90
row,Structure (SMILES),MIC [µg/mL]
1,"O=C(NCc1ccc(N2CC[S+]([O-])CC2)cc1)c1ccc([N+](=O)[O-])o1 [Compound 93, 5-Nitro-furan-2-carboxylic acid 4-(1-oxo-¼-thiomorpholin-4-yl)-benzylamide]",0.8
2,"O=C(NCc1ccc(N2CCS(=O)(=O)CC2)cc1)c1ccc([N+](=O)[O-])o1 [Compound 94, 5-Nitro-furan-2-carboxylic acid 4-(1,1-dioxo-⅙-thiomorpholin-4-yl)-benzylamide]",6.25

# Same assay, conditions: Table 6; M. tuberculosis H37Ra, MIC90
row,Structure (SMILES),MIC [µg/mL]
1,"O=C(c1ccc([N+](=O)[O-])o1)N1CCN(c2ccc(F)cc2)CC1 [Compound 108, [4-(4-Fluoro-phenyl)-piperazin-1-yl]-(^5-nitro-furan-2-yl)-methanone]",0.025

# Same assay, conditions: quoted
row,Structure (SMILES),MIC [µg/mL]
1,CN(C(=O)c1ccc([N+](=O)[O-])o1)c1ccccc1 [Compound 41],3.1

# Tested on: Vero cells
# Assay: Cytotoxicity, alamar blue assay against Vero cells
# Type: cell-based
# Settings: Chlorocebus sabaeus, Vero, read-out: ToxIC50
row,Structure (SMILES),IC50 [µg/mL]
1,"O=C(NCCc1ccccc1)c1ccc([N+](=O)[O-])o1 [Compound 27, 5-Nitro-furan-2-carboxylic acid phenethyl-amide]",25.2
2,"COc1ccc(CCNC(=O)c2ccc([N+](=O)[O-])o2)cc1 [Compound 28, 5-Nitro-furan-2-carboxylic acid [2-(4-methoxy-phenyl)-ethyl]-amide]",20.4

# Same assay, conditions: Chlorocebus sabaeus; Table 1; Vero cells, alamar blue; unit inferred; read-out: ToxIC50
row,Structure (SMILES),IC50 [µg/mL]
1,"O=C(NC1CCCCC1)c1ccc([N+](=O)[O-])o1 [Compound 15, 5-Nitro-furan-2-carboxylic acid cyclohexylamide]",9.08
2,"O=C(NC12CC3CC(CC(C3)C1)C2)c1ccc([N+](=O)[O-])o1 [Compound 16, 5-Nitro-furan-2-carboxylic acid adamantan-1-ylamide]",9.43
3,"O=C(Nc1ccccc1)c1ccc([N+](=O)[O-])o1 [Compound 17, 5-Nitro-furan-2-carboxylic acid phenylamide]",2.19
4,"COc1ccc(CNC(=O)c2ccc([N+](=O)[O-])o2)cc1 [Compound 20, 5-Nitro-furan-2-carboxylic acid 4-methoxy-benzylamide]",16.4
5,"O=C(NCc1ccccc1Cl)c1ccc([N+](=O)[O-])o1 [Compound 21, 5-Nitro-furan-2-carboxylic acid 2-chloro-benzylamide]",11.8
6,"COc1cc(CNC(=O)c2ccc([N+](=O)[O-])o2)cc(OC)c1OC [Compound 24, 5-Nitro-furan-2-carboxylic acid 3,4,5-trimethoxy-benzylamide]",23.6
7,"O=C(NC1CCc2ccccc21)c1ccc([N+](=O)[O-])o1 (stereo not drawn) [Compound 26, 5-Nitro-furan-2-carboxylic acid indan-1-ylamide]",10.3
8,"COc1ccc(CNC(=O)c2ccc(Br)o2)cc1 [Compound 32, 5-Bromo-furan-2-carboxylic acid 4-methoxy-benzylamide]",90.5
9,"O=C(Nc1cccc(O)c1)c1ccc([N+](=O)[O-])o1 [Compound 35, 5-Nitro-furan-2-carboxylic acid(3-hydroxy-phenyl)-amide]",12.5
10,"COc1cccc(NC(=O)c2ccc([S+]([O-])c3ccccc3)o2)c1 (stereo not drawn) [Compound 38, 5-Benzenesulfinyl-furan-2-carboxylic acid(3-methoxy-phenyl)-amide]",65
11,"COc1cccc(NC(=O)c2ccc(S(=O)(=O)c3ccccc3)o2)c1 [Compound 39, 5-Benzenesulfonyl-furan-2-carboxylic acid(3-methoxy-phenyl)-amide]",25.9
12,"CCOC(=O)c1ccc(C(=O)Nc2cccc(OC)c2)o1 [Compound 40, 5-(3-Methoxy-phenylcarbamoyl)-furan-2-carboxylic acid ethyl ester]",200

# Same assay, conditions: Table 1; Vero cells, alamar blue; unit not given
row,Structure (SMILES),ToxIC50
1,"O=C(Nc1cccc(Br)c1)c1ccc([N+](=O)[O-])o1 [Compound 11, 5-Nitro-furan-2-carboxylic acid(3-bromo-phenyl)-amide]",15.37
2,"COc1ccc(NC(=O)c2ccc([N+](=O)[O-])o2)cc1 [Compound 14, 5-Nitro-furan-2-carboxylic acid(4-methoxy-phenyl)-amide]",21.44
3,"O=C(NCc1ccco1)c1ccc([N+](=O)[O-])o1 [Compound 18, 5-Nitro-furan-2-carboxylic acid(furan-2-ylmethyl)-amide]",4.08
4,"N#Cc1ccc(NC(=O)c2ccc([N+](=O)[O-])o2)cc1 [Compound 19, 5-Nitro-furan-2-carboxylic acid(4-cyano-phenyl)-amide]",3.53
5,"COc1ccc(CNC(=O)c2ccc([N+](=O)[O-])o2)c(OC)c1 [Compound 22, 5-Nitro-furan-2-carboxylic acid 2,4-dimetboxy-benzylamide]",5.38
6,"CC(NC(=O)c1ccc([N+](=O)[O-])o1)c1ccccc1 (stereo not drawn) [Compound 29, 5-Nitro-furan-2-carboxylic acid(1-phenyl-ethyl)-amide]",25.63

# From patent US20050222408A1, “Heterocyclic amides with anti-tuberculosis activity” (priority 2003, published 2005)
